Results: ChEMBL document CHEMBL2407045, “Discovery and gram-scale synthesis of BMS-593214, a potent, selective FVIIa inhibitor” (Bioorg Med Chem Lett, 2013)

Assays:
Coagulation factor VII = target: T1, Coagulation factor VII (Homo sapiens, UniProt P08709); assay: Inhibition of recombinant human coagulation factor 7A
T1 sequence (P08709 whole entry): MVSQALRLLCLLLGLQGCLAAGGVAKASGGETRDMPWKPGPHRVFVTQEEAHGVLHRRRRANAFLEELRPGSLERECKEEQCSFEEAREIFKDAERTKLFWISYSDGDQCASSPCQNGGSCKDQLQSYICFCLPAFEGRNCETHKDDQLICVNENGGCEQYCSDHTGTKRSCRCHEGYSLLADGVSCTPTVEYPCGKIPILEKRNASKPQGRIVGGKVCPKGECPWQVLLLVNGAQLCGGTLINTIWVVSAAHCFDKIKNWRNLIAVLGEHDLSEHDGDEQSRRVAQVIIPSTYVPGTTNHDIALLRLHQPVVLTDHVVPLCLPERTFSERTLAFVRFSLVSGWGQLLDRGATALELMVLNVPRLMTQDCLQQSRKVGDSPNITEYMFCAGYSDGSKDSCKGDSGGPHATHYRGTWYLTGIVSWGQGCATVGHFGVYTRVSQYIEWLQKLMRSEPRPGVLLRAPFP

Prothrombin = Prothrombin (Homo sapiens, UniProt P00734); assay: Inhibition of purified human thrombin
Trypsin = Trypsin (Homo sapiens, UniProt P07477+P07478+P35030); assay: Inhibition of purified human trypsin; format: protein assay
Coagulation factor X = Coagulation factor X (Homo sapiens, UniProt P00742); assay: Inhibition of purified human coagulation factor 10a
Chain of Coagulation factor X (P00742 41-179 limits assumed): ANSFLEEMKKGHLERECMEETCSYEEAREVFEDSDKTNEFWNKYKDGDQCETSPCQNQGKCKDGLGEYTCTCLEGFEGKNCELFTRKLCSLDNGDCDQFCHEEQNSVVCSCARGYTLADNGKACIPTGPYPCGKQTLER
Chain of Coagulation factor X (P00742 235-488 limits assumed): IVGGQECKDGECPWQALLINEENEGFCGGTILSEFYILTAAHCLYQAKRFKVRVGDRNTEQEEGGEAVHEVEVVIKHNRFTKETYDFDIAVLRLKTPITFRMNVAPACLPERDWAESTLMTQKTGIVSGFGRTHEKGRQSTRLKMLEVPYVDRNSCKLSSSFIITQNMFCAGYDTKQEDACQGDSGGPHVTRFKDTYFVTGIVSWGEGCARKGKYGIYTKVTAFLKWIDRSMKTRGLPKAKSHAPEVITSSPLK

[1] = Anticoagulant activity in plasma (unknown origin) assessed as concentration required to double prothrombin time; format: functional
Oryctolagus cuniculus [2] = species on record: Oryctolagus cuniculus; assay: Antithrombotic activity in rabbit electric current arterial thrombosis model; format: functional, organism-based
Oryctolagus cuniculus [3] = species on record: Oryctolagus cuniculus; assay: Toxicity in rabbit assessed as prolongation of cuticle bleeding time; format: organism-based; conditions: in vivo

Row | Ki (Coagulation factor VII) | Ki (Prothrombin) | Ki (Trypsin) | Ki (Coagulation factor X) | EC50 (Oryctolagus cuniculus [2]) | SMILES | 2PT [1] | Activity (Oryctolagus cuniculus [3])
1 | 8.1 nM | 330 nM | 6900 nM | 1500 nM | – | COc1cc([C@@H]2Nc3ccc(C(=N)N)cc3[C@H]3c4ccccc4C[C@H]32)c(-c2cccc(C(=O)O)c2)cc1O (racemic) | – | –
2 | 1.9 nM | 1800 nM | > 8000 nM | 1300 nM | – | COc1cc([C@@H]2Nc3ccc(C(=N)N)cc3[C@H]3c4ccccc4C[C@H]32)c(-c2ccc(C(=O)O)cc2)cc1O (racemic) | 16 µM | –
3 | 0.62 nM | 35 nM | 7.5 nM | 16 nM | – | COc1cc([C@@H]2Nc3ccc(C(=N)N)cc3[C@H]3c4ccccc4C[C@H]32)c(-c2ccccc2C(=O)O)cc1O (racemic) | – | –
4 | – | – | – | – | 570 nM | COc1cc([C@@H]2Nc3ccc(C(=N)N)cc3[C@H]3c4ccccc4C[C@H]32)c(-c2ccc(C(=O)O)cc2)cc1O | – | Non-toxic

Further lines, the compound ahead of its results:

Row | SMILES | Ki (Coagulation factor VII) | Ki (Prothrombin) | Ki (Trypsin) | Ki (Coagulation factor X) | EC50 (Oryctolagus cuniculus [2]) | 2PT [1] | Activity (Oryctolagus cuniculus [3])
5 | C[C@]1(c2ccccc2)C[C@H](c2ccc(O)cc2)Nc2ccc(C(=N)N)cc21 | 8800 nM | – | – | – | – | – | –
6 | COc1cc([C@H]2C[C@H](c3ccccc3)c3cc(C(=N)N)ccc3N2)ccc1O | 1800 nM | – | – | – | – | – | –
7 | COc1cc([C@@H]2Nc3ccc(C(=N)N)cc3[C@H]3c4ccccc4C[C@H]32)ccc1O (racemic) | 160 nM | 300 nM | 300 nM | > 500 nM | – | – | –
